Measured values reported in paper PMC4700278, “Molecular and Biochemical Analysis of the Estrogenic and Proliferative Properties of Vitamin E Compounds” (Frontiers in Oncology, 2016).

Assays:
MDA-MB-231 (ER(−)) cells = assay: Cell proliferation assay (sulforhodamine B); format: cell-based, human; conditions: 500 μM δ-TP or δ-TT; 30 μM lovastatin; 6-day period
Protocol: MCF-7 (ER(+)), T47D (ER(+)), and MDA-MB-231 (ER(−)) cell lines were from ATCC. Cell lines were maintained at 37°C in a humidified incubator in a 5% CO2-enriched atmosphere in T-75 flasks. MCF-7, T47D, and MDA-MB-231 cells were grown routinely in phenol red RPMI 1640 medium supplemented with 5% FBS (Gibco BRL, Life Technologies, Cergy Pontoise, France) and with penicillin–streptomycin. Cells were grown for 24 h before treatment in phenol red-free medium containing 5% DCC-FCS. Cells were seeded into 96-well plates at 2000 cells/well. Treatment media (150 μl/well) was added on the following day and replaced at 48-h intervals until the end of the experiment. Cell density was measured via the sulforhodamine B method ([43]) after 0, 2, 4, 6, and 8 days. The absorbance of SRB was measured directly at 490 nm in the 96-well plates using a multiskan® multisoft reader from Labsystem.
Figure 4 Effect of tocol on ER(+) and ER(−) BC cell proliferation and HMG-CoA reductase activity. (A) Effect of δ-tocols on estrogen and non-estrogen-regulated growth of MCF-7, T47D, and MDA-MB-231 cells. […] Cells were also treated with 30 μM lovastatin (Lova) in the presence or absence of 5 mM M, as described in Section “Materials and Methods.” Values are shown as means and vertical bars represent SEM. The data were analyzed by two-way ANOVA, followed by Bonferroni post hoc test. ***P < 0.001, **P < 0.01, and *P < 0.05 in comparison with control or bare-linked specific control. Ns: not significant. (B) Effect of δ-TT on hydroxymethylglutaryl coenzyme A reductase (HMGR) activity in MCF-7, T47D, and MDA-MB-231 cells. […] Data shown are the mean values ± SEM from three independent experiments performed in triplicate.

ERα [1] = biological target: T1, ERα (Homo sapiens, UniProt P03372); assay: Estrogen receptor-binding assay, competition with [3H]-17β-estradiol; set-up: expressed in transfected cells; host or cells: Cos-7; conditions: extracts of cos-7 cells expressing human ERα; 2 nM [3H]-E2; tocols 1 μM to 1 mM; N.M. = not measurable
T1 sequence (P03372 1-595): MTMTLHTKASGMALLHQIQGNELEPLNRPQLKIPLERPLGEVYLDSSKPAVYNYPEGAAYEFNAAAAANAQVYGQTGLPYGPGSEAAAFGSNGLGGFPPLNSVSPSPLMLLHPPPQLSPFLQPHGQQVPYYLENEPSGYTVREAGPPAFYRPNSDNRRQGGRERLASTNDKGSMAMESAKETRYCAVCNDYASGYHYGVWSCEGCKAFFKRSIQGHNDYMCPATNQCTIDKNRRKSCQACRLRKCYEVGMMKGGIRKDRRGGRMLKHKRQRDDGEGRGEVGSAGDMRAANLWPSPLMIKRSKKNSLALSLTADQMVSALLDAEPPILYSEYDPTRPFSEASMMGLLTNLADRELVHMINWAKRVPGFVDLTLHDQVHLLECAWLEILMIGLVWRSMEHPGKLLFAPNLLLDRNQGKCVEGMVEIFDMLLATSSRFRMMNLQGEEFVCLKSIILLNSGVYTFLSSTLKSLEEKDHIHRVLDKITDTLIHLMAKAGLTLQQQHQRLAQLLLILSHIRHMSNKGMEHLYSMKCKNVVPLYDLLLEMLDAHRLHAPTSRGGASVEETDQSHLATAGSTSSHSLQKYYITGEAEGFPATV

ERα [2] = biological target: T1, ERα; assay: ERE-luciferase reporter assay in HELN-ERα cells; format: cell-based; set-up: endogenous in cells; host or cells: MCF-7; conditions: 500 μM
Source text: MELN cells were established by transfecting ER(+) MCF-7 cells with the ERE-β-globin-tk-Luc-SV-Neo plasmid ([36]). HELN cells were generated by transfection of ER(−) HeLa cells with this plasmid. The HELN-ERα, HELN-ERβ, HELN-ΔAB-ERα, and HELN-ΔAB-ERβ cell lines then underwent a second transfection with the corresponding pSG5-puro plasmids (pSG5-ERα-puro, pSG5-ERβ-puro, pSG5-ΔAB-ERα-puro, and pSG5-ΔAB-ERβ-puro, respectively) and expressed wild-type or mutated ERα or ERβ ([39], [40]). […] Luciferase activity was measured using the luciferase assay reagent (Promega), according to the manufacturer’s instructions. Protein concentrations were measured using the Bradford technique ([41]) to normalize the luciferase activity data. For each condition, average luciferase activity was calculated from the data of three independent wells.
Figure 3 Measurement of estrogenicity of tocols in vitro. […] MCF-7 extracts were analyzed for the presence of ERα by western blotting using GAPDH as a control. […] The ratio of ERα to GAPDH levels in each experiment was determined densitometrically and normalized to control value (taken to be 1). […] The relative expression of TGFα, PR, and Ps2 (TFF1) after 16 h was analyzed by quantitative RT-PCR. […]

[3] = tested on: ER-dependent transcription in MELN cells; assay: ERE-luciferase reporter assay in MELN cells (MCF-7 stably transfected with ERE-β-globin-tk-Luc); format: cell-based, human; conditions: 500 μM, maximal response = 10 nM E2
Source text: MELN cells were established by transfecting ER(+) MCF-7 cells with the ERE-β-globin-tk-Luc-SV-Neo plasmid ([36]). HELN cells were generated by transfection of ER(−) HeLa cells with this plasmid. The HELN-ERα, HELN-ERβ, HELN-ΔAB-ERα, and HELN-ΔAB-ERβ cell lines then underwent a second transfection with the corresponding pSG5-puro plasmids (pSG5-ERα-puro, pSG5-ERβ-puro, pSG5-ΔAB-ERα-puro, and pSG5-ΔAB-ERβ-puro, respectively) and expressed wild-type or mutated ERα or ERβ ([39], [40]). […] Comparison of the activities toward hERα and hERβ with the truncated ΔAB-ERα and ΔAB-ERβ provides a powerful model to identify partial ER agonists (requiring ligand-independent AF-1 to induce maximal ER activation). […] Cells were grown routinely in DMEM growth medium supplemented with 5% FBS (Gibco BRL, Life Technologies, Cergy pontoise, France). Cells were incubated at 37°C in a humidified 5% CO2 incubator. For experiments, cells were grown for 5 days in phenol red-free medium, containing 6% dextran-coated charcoal-treated FCS (DCC-FCS) with penicillin–streptomycin. Medium was changed after 2 days. On day 5, cells were treated or not with the compounds, which were dissolved in ethanol. For each condition, 15 × 10^3 cells were seeded per well in 12-well plates and treated, as described above, for 8 h in a final volume of 0.5 ml. At the end of the treatment, cells were washed with PBS and lysed in 150 μl lysis buffer (Promega, Charbonnières, France). Luciferase activity was measured using the luciferase assay reagent (Promega), according to the manufacturer’s instructions. Protein concentrations were measured using the Bradford technique ([41]) to normalize the luciferase activity data. For each condition, average luciferase activity was calculated from the data of three independent wells.
Figure 3 Measurement of estrogenicity of tocols in vitro. (A) Dose–response curve of the effect of tocols on MCF-7 cells stably transfected with the ERE-β-globin-tk-Luc plasmid (MELN cells). […] Data shown are the mean values ± SEM from three independent experiments. […] MCF-7 extracts were analyzed for the presence of ERα by western blotting using GAPDH as a control. […] The western blot shown is representative of three independent experiments. The ratio of ERα to GAPDH levels in each experiment was determined densitometrically and normalized to control value (taken to be 1). (D) Effect of δ-tocols on estrogen response element-dependent luciferase activity in HELN cells, which are HELA cells transfected with either fully functional ERα or ERβ or their mutated versions containing a deletion the AB domain (ΔAB). […] Data shown are the mean values ± SEM from three independent experiments. […] Cells were treated with 500 μM δ-tocols in the presence or in the absence of ICI. The relative expression of TGFα, PR, and Ps2 (TFF1) after 16 h was analyzed by quantitative RT-PCR. Data shown are the mean values ± SEM from three independent experiments.

T47D (ER(+)) cells = assay: Cell proliferation assay (sulforhodamine B); format: cell-based, human; conditions: 500 μM δ-TP or δ-TT; 30 μM lovastatin; 6-day period
Protocol: (§1) MCF-7 (ER(+)), T47D (ER(+)), and MDA-MB-231 (ER(−)) cell lines were from ATCC. Cell lines were maintained at 37°C in a humidified incubator in a 5% CO2-enriched atmosphere in T-75 flasks. […] Cells were grown for 24 h before treatment in phenol red-free medium containing 5% DCC-FCS. Cells were seeded into 96-well plates at 2000 cells/well. Treatment media (150 μl/well) was added on the following day and replaced at 48-h intervals until the end of the experiment. Cell density was measured via the sulforhodamine B method ([43]) after 0, 2, 4, 6, and 8 days. The absorbance of SRB was measured directly at 490 nm in the 96-well plates using a multiskan® multisoft reader from Labsystem.

MCF-7 (ER(+)) cells = assay: Cell proliferation assay (sulforhodamine B); format: cell-based, human; conditions: 500 μM δ-TP or δ-TT; 30 μM lovastatin; 6-day period
Protocol: as §1

Q: Which results are given for Cc1cc(O)cc2c1OC(C)(CCCC(C)CCCC(C)CCCC(C)C)CC2 (stereo not drawn) [δ-TP, δ-tocopherol]?
A: effect on MDA-MB-231 cell proliferation (MDA-MB-231 (ER(−)) cells): no impact; IC50 (ERα [1]): 118 ± 15 µM; ER-dependent luciferase activity through ERα (ERα [2]): activate ER-dependent luciferase activity; luciferase activity as % of the maximal ER-dependent response [3]: 76.5%; effect on T47D cell proliferation (T47D (ER(+)) cells): significant stimulation; effect on MCF-7 cell proliferation (MCF-7 (ER(+)) cells): significant stimulation

Q: How did the “effect on MDA-MB-231 cell proliferation” value (MDA-MB-231 (ER(−)) cells) turn out when CC(C)=CCC/C(C)=C/CC/C(C)=C/CC[C@]1(C)CCc2cc(O)cc(C)c2O1 [δ-TT, δ-tocotrienol] was run?
A: inhibited the proliferation

Q: And the IC50 (ERα [1])?
A: 96 ± 6 µM

Q: What about the “ER-dependent luciferase activity through ERα” value (ERα [2]) of the same compound?
A: activate ER-dependent luciferase activity

Q: And the “luciferase activity as % of the maximal ER-dependent response” value [3]?
A: 86.6%

Q: What about the “effect on T47D cell proliferation” value (T47D (ER(+)) cells) of the same compound?
A: inhibited the proliferation

Q: And the “effect on MCF-7 cell proliferation” value (MCF-7 (ER(+)) cells)?
A: inhibited the proliferation
